# Measured values reported in ChEMBL document CHEMBL1201862, “PubChem BioAssay data set” (2004).
# The source made the active and inactive calls.
# Tests used:
# HEK293 = experiment: Fluorescence-based counterscreen for potentiators or agonists of NPY-Y2: cell-based high-throughput dose response assay to identify inhibitors of cyclic nucleotide gated ion channel (CNGC) activity. In this assay, the parental HEK293 cell line transfected with a cyclic-nucleotide gated ion channel (CNGC)-based cAMP sensor is used to measure inhibition of isoproterenol-induced CNGC activity by test compound.; assay type: functional; settings: Homo sapiens;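 also: stimulus is 1 µM isoproterenol at EC100 plus PDE inhibitor Ro 20-1724 at 25 µM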
# [1] = target: T1, Neuropeptide Y receptor type 2 (Homo sapiens, UniProt P49146); experiment: Fluorescence-based cell-based high-throughput dose response assay for agonists of NPY-Y2. [Related pubchem assays: 1703 (Screening assay (CNGC inhibitors).), 1359 (Screening assay (NPY-Y2 potentiators or agonists).), 1304 (Screening assay (NPY-Y1 potentiators or agonists).), 1710 (Screening assay (NPY-Y2 agonists).), 1791 (Summary AID.)]; assay type: functional
# T1 sequence (P49146 whole entry): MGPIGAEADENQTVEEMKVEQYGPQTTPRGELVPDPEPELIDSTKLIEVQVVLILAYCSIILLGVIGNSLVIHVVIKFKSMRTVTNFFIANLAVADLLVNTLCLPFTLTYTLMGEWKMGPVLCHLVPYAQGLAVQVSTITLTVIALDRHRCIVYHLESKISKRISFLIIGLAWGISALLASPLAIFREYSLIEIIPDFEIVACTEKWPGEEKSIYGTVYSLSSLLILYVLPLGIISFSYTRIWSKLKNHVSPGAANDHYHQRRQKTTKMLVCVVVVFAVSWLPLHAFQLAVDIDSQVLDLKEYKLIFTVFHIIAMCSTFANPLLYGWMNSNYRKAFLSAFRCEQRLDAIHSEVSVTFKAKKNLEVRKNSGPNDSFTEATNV
# [2] = target: T2, Neuropeptide Y receptor type 1 (Homo sapiens, UniProt P25929); experiment: Fluorescence-based counterscreen for agonists of NPY-Y2: cell-based high-throughput dose response assay for agonists of NPY-Y1.; assay type: functional
# T2 sequence (P25929 whole entry): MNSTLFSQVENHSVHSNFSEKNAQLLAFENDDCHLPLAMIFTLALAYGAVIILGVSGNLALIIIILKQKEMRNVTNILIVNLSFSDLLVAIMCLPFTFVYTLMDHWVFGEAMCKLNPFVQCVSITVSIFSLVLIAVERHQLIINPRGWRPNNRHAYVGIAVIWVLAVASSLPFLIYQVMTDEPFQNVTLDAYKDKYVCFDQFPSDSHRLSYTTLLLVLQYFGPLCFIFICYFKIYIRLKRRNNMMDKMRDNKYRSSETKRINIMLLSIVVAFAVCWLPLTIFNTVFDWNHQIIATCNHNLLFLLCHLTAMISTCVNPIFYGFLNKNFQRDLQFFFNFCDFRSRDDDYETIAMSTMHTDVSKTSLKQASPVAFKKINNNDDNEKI
# [3] = target: Lysosomal acid glucosylceramidase (Homo sapiens, UniProt P04062); experiment: Dose response cell-based high throughput screening assay to identify enhancers of beta-glucosidase activity. [Related pubchem assays: 784 ]; assay type: functional
# Cytochrome P450 2D6 = Cytochrome P450 2D6 (Homo sapiens, UniProt P10635); experiment: qHTS Assay for Inhibitors and Substrates of Cytochrome P450 2D6. [Related pubchem assays: 410 ]; assay type: ADME; settings: read-out: Potency
# [4] = target: Eukaryotic translation initiation factor 4H (Homo sapiens, UniProt Q15056); experiment: human eIF4H binding inhibitors, primary screen, translation initiation inhibitor project, biochemical, uHTS, fluorescence polarization (AID 2012)
# [5] = target: Polyadenylate-binding protein 1 (Homo sapiens, UniProt P11940); experiment: PABP poly(A) RNA binding inhibitors, primary screen, biochemical, fluorescence polarization, uHTS (AID 2014)
# NS3 = NS3 (Hepatitis C virus, UniProt A3EZJ3); experiment: PubChem AID 2173; design: species or system Hepacivirus hominis
# Cytochrome P450 1A2 = target: T3, Cytochrome P450 1A2 (Homo sapiens, UniProt P05177);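 also: PubChem cytochrome P450 panel assay, CYP1A2 panel member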
# T3 sequence (P05177 whole entry): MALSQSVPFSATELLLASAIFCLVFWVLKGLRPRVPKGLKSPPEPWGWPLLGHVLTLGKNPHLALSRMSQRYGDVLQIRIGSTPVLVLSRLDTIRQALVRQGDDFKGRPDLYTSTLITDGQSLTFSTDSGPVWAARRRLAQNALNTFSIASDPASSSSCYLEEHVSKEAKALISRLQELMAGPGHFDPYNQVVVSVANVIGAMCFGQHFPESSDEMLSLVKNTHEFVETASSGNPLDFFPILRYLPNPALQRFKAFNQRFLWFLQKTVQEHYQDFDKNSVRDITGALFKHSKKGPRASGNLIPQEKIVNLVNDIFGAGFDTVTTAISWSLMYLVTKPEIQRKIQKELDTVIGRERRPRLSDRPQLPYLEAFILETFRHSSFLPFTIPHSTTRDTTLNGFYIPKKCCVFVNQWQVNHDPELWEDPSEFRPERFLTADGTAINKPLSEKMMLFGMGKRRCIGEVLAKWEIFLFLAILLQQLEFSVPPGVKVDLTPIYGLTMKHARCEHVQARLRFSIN
# Cytochrome P450 3A4 = Cytochrome P450 3A4 (Homo sapiens, UniProt P08684);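 also: CYP3A4 tested as one member of a cytochrome P450 panel screen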
# [6] = cytotoxicity in HEK-293T cells, dose response, cytotoxicity control for BCR NF-kB inhibitor project, luminescence, B-cell screen hits (AID 489021); assay type: functional, cell-based;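 also: HEK-293T cells carrying an NF-kB luciferase reporter; cells exposed to compound for about 14 hours before viability readout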
# [7] = target: Serine/threonine-protein phosphatase PP1-alpha catalytic subunit (Homo sapiens, UniProt P62136); experiment: PP1 phosphatase inhibitors, dose response, biochemical, fluorescence (AID 2403);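 also: phosphatase turnover of OMFP into fluorescent 3-O-methylfluorescein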
# [8] = target: Serine/threonine-protein phosphatase (Homo sapiens, UniProt Q9BPW0); experiment: Counterscreen for inhibitors of PP1: fluorescence-based biochemical high throughput dose response assay to identify inhibitors of Protein Phosphatase 5 (PP5). [Related pubchem assays: 2034 (Summary (PP5 inhibitors)), 1987 (PP5 inhibitors in singlate), 2235 (PP1 inhibitors in singlate)]
# [9] = target: T4, Neuropeptides B/W receptor type 1 (Homo sapiens, UniProt P48145); experiment: Fluorescence-based dose response cell-based high throughput screening assay to identify antagonists of the G-protein coupled receptor 7 (GPR7). [Related pubchem assays: 1952 (Screening assay (GPR7 antagonists).), 1880 (Summary AID.)]; assay type: functional
# T4 sequence (P48145 whole entry): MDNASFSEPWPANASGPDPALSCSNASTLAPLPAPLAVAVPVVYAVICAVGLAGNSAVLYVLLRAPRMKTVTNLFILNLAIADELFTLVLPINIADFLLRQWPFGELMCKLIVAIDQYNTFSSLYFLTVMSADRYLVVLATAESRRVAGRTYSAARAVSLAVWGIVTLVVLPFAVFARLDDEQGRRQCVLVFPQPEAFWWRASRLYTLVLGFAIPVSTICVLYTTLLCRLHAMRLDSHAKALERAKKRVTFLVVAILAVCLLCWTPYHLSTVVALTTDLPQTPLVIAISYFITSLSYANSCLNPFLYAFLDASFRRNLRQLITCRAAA
# [10] = target: Melanin-concentrating hormone receptor 1 (Homo sapiens, UniProt Q99705); experiment: Fluorescence-based counterscreen for antagonists of the G-protein coupled receptor 7 (GPR7): cell-based high throughput dose response assay to identify antagonists of the melanin-concentrating hormone receptor 1 (MCHR1).; assay type: functional
# [11] = target: T5, Eukaryotic translation initiation factor 2-alpha kinase 3 (Homo sapiens, UniProt Q9NZJ5); experiment: Dose response cell-based high-throughput screening assay to measure PERK inhibition. [Related pubchem assays: 1416 ]; assay type: functional
# [12] = target: T5, Eukaryotic translation initiation factor 2-alpha kinase 3; experiment: Counterscreen assay for PERK inhibitors: Dose response cell-based high throughput screening assay to measure inhibition of PERK at 6 hours. [Related pubchem assays: 1522, 1416 ]; assay type: functional
# [13] = growth suppression of PTEN-null colon cells, dose response, cell-based, HCT116 PTEN knockout (AID 1047); assay type: functional;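 also: HCT116 colon tumor cells with PTEN knocked out; cells exposed to compound for 60 hours before readout; potency for loss of cell viability measured by luminescence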
# [14] = growth suppression of beta-catenin-knockout colon cells, dose response, cell-based, HCT116, human colon tumor (AID 1045); assay type: functional;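 also: HCT116 colon tumor cells with beta catenin knocked out; cells exposed to compound for 60 hours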
# [15] = target: Neurotensin receptor type 1 (Homo sapiens, UniProt P30989); assay type: functional;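 also: Image-based confirmatory dose-response assay measuring agonist activity at NTR1; NTR1-expressing U2OS osteosarcoma cells imaged for beta-arrestin GFP spot formation; agonist potency where compounds increase beta-arrestin recruitment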
# X-box-binding protein 1 = X-box-binding protein 1 (Homo sapiens, UniProt P17861); assay type: functional, Cricetulus griseus;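 also: confirmatory dose-response counter-screen serving a CHOP assay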
# [16] = target: T6, Alkaline phosphatase, tissue-nonspecific isozyme (Homo sapiens, UniProt P05186)
# T6 sequence (P05186 whole entry): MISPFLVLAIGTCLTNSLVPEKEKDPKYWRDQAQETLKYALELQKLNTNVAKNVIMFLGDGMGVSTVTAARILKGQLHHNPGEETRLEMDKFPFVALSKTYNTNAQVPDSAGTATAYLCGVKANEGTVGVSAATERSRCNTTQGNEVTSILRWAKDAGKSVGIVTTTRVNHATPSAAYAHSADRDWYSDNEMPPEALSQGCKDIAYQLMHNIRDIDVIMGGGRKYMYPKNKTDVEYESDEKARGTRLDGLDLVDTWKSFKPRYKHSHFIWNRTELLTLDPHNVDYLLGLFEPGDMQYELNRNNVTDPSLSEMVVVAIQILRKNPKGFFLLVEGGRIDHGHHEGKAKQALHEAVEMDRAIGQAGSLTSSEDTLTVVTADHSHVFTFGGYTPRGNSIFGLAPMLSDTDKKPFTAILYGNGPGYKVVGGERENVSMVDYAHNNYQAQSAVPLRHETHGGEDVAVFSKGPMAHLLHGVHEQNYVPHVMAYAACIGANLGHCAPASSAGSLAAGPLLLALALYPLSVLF
# [17] = target: T7, Probable nicotinate-nucleotide adenylyltransferase (Staphylococcus aureus (strain N315), UniProt P65502); assay type: functional, Staphylococcus aureus subsp. aureus N315;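 as to IC50 Mean: confirmatory dose-response retesting of NadD inhibitor hits first found in an ultra-high-throughput screen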
# [18] = target: T7, Probable nicotinate-nucleotide adenylyltransferase; assay type: functional, Staphylococcus aureus subsp. aureus N315; settings: read-out: IC50_Mean
# [19] = target: Mothers against decapentaplegic homolog 3 (Homo sapiens, UniProt P84022); experiment: Smad3 binding inhibitors, lysate ELISA, dose response, cell lysate, secondary confirmation, chemiluminescent ELISA, HEK293 lysate (AID 1058); assay type: functional
# Wee1-like protein kinase = Wee1-like protein kinase (Homo sapiens, UniProt P30291); experiment: G2/M cell cycle arrest in HeLa, late-stage follow-up, mechanism study for Wee1 degradation inhibitor project, FACS, panel member Wee1 Degradation (AID 2088)
# [20] = target: G2/mitotic-specific cyclin-B1 (Homo sapiens, UniProt P14635); experiment: G2/M cell cycle arrest in HeLa, late-stage follow-up, mechanism study for Wee1 degradation inhibitor project, FACS, panel member Cyclin B Degradation (AID 2088)
# [21] = target: Signal transducer and activator of transcription 3 (Homo sapiens, UniProt P40763); experiment: STAT3 activators, late-stage profile, late-stage follow-up, cell-based, STAT1 reporter, BCL3 qPCR, cytotoxicity, panel member STAT3 Activation (AID 2049)
# Signal transducer and activator of transcription 3, sequence (P40763 whole entry): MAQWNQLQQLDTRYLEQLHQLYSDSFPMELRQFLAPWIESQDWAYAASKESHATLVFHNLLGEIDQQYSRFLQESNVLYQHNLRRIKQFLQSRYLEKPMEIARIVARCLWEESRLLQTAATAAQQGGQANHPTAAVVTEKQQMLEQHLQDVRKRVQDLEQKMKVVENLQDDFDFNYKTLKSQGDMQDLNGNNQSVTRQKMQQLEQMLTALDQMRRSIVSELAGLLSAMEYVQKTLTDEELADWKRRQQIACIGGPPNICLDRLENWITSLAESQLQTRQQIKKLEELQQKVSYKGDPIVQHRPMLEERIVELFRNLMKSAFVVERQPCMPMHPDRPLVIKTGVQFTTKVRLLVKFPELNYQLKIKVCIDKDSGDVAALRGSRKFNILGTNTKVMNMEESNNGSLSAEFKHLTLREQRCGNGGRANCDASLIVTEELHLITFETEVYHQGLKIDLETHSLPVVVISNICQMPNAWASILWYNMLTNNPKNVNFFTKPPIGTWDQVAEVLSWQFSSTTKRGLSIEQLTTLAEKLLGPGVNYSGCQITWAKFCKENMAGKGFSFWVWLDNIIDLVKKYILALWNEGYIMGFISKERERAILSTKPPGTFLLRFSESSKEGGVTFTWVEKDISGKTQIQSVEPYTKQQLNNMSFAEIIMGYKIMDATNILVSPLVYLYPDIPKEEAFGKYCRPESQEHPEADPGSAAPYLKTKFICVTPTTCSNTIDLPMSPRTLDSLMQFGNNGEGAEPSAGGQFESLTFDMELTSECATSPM
# T5 sequence (Q9NZJ5 whole entry): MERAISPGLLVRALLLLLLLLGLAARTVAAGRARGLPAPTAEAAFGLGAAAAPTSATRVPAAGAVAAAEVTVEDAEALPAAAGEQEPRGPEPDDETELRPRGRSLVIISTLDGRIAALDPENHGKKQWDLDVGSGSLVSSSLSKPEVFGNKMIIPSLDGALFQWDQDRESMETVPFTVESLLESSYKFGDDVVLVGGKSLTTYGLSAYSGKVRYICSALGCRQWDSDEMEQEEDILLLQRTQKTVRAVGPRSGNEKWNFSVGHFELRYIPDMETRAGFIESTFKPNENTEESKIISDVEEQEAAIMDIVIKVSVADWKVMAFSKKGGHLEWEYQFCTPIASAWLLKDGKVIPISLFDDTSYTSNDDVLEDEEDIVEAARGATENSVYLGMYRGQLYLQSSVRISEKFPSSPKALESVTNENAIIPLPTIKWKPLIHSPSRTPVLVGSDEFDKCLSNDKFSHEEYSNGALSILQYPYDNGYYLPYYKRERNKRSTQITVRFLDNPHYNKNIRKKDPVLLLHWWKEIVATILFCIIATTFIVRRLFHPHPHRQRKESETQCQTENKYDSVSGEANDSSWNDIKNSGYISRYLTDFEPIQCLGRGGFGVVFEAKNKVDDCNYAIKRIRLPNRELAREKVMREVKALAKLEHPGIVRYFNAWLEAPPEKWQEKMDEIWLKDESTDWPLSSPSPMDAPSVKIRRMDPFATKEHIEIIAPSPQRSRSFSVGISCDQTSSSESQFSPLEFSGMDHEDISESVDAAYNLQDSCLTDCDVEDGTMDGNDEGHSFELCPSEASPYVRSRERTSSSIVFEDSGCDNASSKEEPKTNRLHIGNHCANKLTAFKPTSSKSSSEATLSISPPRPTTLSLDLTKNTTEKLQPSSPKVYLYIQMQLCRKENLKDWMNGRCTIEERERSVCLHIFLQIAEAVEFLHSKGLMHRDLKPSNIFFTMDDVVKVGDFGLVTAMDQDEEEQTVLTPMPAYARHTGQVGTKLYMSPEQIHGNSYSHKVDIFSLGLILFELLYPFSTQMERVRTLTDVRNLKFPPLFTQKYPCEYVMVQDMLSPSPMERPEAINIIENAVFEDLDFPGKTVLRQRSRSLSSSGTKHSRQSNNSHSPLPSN
# T7 sequence (P65502 whole entry): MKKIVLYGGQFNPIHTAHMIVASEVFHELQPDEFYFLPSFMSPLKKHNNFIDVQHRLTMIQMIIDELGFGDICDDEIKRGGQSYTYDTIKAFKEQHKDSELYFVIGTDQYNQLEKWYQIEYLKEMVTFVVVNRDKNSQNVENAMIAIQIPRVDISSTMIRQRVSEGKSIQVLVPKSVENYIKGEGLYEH
# X-box-binding protein 1, sequence (P17861 whole entry): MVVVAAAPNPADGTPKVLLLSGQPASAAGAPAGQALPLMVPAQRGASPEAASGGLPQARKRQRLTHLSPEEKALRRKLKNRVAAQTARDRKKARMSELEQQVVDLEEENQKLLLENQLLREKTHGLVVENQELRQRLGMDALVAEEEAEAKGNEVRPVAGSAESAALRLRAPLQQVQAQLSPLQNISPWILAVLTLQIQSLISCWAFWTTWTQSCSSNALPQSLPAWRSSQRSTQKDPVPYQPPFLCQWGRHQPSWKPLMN
# Serine/threonine-protein phosphatase, sequence (Q9BPW0 whole entry): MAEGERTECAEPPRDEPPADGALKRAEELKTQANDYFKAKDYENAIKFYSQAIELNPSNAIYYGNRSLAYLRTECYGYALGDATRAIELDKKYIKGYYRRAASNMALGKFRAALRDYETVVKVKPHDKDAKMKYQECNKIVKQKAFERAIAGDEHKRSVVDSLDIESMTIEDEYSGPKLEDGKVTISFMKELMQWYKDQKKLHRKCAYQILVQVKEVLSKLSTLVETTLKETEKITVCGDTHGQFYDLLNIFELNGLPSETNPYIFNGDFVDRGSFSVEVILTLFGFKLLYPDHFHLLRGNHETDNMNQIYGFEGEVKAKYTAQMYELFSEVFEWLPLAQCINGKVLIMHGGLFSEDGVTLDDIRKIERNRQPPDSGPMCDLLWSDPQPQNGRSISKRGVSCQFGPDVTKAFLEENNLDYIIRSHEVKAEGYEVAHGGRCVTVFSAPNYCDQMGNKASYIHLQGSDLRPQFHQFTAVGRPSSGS
# Neurotensin receptor type 1, sequence (P30989 whole entry): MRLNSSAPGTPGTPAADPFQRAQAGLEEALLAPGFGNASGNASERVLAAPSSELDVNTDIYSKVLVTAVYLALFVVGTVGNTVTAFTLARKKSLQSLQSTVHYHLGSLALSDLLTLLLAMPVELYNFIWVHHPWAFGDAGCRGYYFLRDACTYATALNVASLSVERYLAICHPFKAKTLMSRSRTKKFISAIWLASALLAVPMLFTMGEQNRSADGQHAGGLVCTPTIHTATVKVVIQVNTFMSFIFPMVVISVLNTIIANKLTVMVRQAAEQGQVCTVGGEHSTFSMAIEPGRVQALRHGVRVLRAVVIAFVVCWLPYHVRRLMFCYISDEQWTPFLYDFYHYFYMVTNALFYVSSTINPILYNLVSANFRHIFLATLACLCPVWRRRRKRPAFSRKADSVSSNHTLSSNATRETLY
# Lysosomal acid glucosylceramidase, sequence (P04062 whole entry): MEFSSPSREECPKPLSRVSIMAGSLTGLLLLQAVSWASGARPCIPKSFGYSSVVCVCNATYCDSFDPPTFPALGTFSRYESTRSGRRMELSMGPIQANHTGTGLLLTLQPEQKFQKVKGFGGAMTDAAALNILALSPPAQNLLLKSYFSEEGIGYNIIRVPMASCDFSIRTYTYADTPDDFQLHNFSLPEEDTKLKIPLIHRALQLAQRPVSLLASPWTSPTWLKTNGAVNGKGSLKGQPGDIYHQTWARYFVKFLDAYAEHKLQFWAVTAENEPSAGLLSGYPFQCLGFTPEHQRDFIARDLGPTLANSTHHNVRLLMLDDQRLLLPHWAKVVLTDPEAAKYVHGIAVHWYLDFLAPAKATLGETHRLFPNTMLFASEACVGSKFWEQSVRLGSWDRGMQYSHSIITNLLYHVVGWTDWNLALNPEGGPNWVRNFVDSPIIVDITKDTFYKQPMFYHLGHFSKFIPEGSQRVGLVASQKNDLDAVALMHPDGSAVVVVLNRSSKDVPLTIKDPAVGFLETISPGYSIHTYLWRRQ
# NS3, sequence (A3EZJ3 whole entry): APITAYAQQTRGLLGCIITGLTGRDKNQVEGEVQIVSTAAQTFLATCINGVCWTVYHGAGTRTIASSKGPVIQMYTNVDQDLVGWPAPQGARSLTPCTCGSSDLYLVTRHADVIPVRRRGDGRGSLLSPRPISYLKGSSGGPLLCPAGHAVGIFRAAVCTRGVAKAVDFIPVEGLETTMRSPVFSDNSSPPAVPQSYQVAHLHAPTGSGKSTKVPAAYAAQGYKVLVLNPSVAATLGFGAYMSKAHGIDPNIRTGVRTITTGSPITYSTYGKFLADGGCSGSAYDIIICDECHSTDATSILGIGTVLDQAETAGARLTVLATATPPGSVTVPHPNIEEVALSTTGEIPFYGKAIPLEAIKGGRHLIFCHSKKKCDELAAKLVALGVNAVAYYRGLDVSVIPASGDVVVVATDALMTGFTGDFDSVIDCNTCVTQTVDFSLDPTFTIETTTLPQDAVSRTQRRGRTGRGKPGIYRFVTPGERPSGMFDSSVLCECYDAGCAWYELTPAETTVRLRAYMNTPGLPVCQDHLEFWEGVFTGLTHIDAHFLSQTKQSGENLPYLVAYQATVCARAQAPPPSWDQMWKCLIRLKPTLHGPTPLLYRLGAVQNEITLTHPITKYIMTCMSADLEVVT
# Serine/threonine-protein phosphatase PP1-alpha catalytic subunit, sequence (P62136 whole entry): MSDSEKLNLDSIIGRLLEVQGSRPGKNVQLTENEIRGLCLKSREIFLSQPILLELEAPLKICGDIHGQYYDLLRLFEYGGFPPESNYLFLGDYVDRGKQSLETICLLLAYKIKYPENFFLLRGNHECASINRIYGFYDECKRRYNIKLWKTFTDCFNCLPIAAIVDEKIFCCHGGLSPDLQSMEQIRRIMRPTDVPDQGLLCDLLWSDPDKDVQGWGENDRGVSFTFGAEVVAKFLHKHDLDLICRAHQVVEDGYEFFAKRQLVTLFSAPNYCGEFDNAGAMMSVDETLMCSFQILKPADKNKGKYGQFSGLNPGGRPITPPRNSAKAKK
structure (smiles),measurement,setting,value
Nc1sc(-c2ccccc2)cc1-c1nnc(S)n1C1CCCCC1,EC50,HEK293,22.5 µM (not active)
same,EC50,[1],30.8 µM (not active)
same,EC50,[2],24.4 µM (not active)
CC1CCC(C(=O)NC(C(=O)NCCCN2CCOCC2)C(C)C)CC1 (stereo not drawn),EC50,[3],> 10 µM (not active)
CC(C)[C@@H]1OC(=O)\C=C/C=C\C=C/C=C\C=C/C[C@@H](O)[C@H](C)[C@@H](O)C[C@H](O)C[C@H](O)C[C@H](O)C[C@H](O)C[C@H](O)C[C@H](O)/C=C\[C@@H]1C,AC50,Cytochrome P450 2D6,0.316 µM (inconclusive)
Cc1cc(Br)ccc1SCC(=O)OCC(=O)NCc1ccco1,IC50,[4],2.93 µM (active)
same,IC50,[5],9.37 µM (active)
Cc1ccc(C)c(N2CCN(C(=O)c3ccc4nc(-c5ccco5)c(-c5ccco5)nc4c3)CC2)c1,IC50,NS3,14.2 µM (not active)
same,AC50,Cytochrome P450 1A2,15.8 µM (inconclusive)
same,AC50,Cytochrome P450 3A4,20 µM (inconclusive)
CCN(CC)CCOC(=O)c1ccc(NC(=O)COc2cc(=O)n(CC)c3ccccc23)cc1,IC50,[6],> 80 µM (inactive)
O=C(O)c1cc(-c2ccc(Cl)c(Cl)c2)n(-c2ccc(F)cc2)n1,IC50,[7],8.13 µM (active)
same,IC50,[8],> 67 µM (not active)
O=C(CSc1nnc(Cc2ccccc2)n1Cc1ccco1)NC1CCCC1,IC50,[9],> 43.8 µM (not active)
same,IC50,[10],> 43.8 µM (not active)
Cc1ccnc(NS(=O)(=O)c2cc(C(F)(F)F)ccc2Cl)c1,EC50,[11],> 55.7 µM (not active)
same,EC50,[12],> 55.7 µM (not active)
Cc1cc2c3c(c1)C(C)(c1ccccc1)CC(C)(C)N3C(=O)C21C(C#N)=C(N)OC2=C1C(=O)CC(C)(C)C2 (stereo not drawn),EC50,[13],19.4 µM (active)
same,EC50,[14],20.4 µM (active)
same,EC50,[15],22 µM (inactive)
same,Absolute IC50 (XBP1),X-box-binding protein 1,10 µM
COCc1cc(O)n2nc(-c3ccsc3-n3c(C)ccc3C)cc2n1,EC50,[16],> 100 µM (not active)
same,IC50,[17],13.3 µM (active)
same,IC50,[18],51.3 µM (active)
COC(=O)c1ccccc1C1c2ccc(O)c(O)c2OC2=C(O)C(=O)C=CC21 (stereo not drawn),IC50,[19],> 50 µM (not active)
COC(=O)c1ccccc1NC(=O)CCCOc1cc(=O)n(C)c2ccccc12,EC50,Wee1-like protein kinase,> 49.7 µM (inactive)
same,EC50,[20],> 49.7 µM (inactive)
COc1cccc(NC(=O)c2cc(C3CC3)on2)c1,EC50,[21],> 5.57 µM (inactive)
